Laboratory results: article PMC2361324, “Phase 1 trial of the antiangiogenic peptide ATN-161 (Ac-PHSCN-NH2), a beta integrin antagonist, in patients with solid tumours” (British Journal of Cancer, 2006)
Like-named read-outs stand apart in the source and are kept apart here.

Experiments:
[1] = except at extremely high, supratherapeutic doses, ref not given, cited from earlier work
Text: These preclinical animal models included assessment of the effects of ATN-161 on tumour growth, metastasis, angiogenesis, tumour perfusion and circulating endothelial progenitor cells (CEPs) ([Donate et al, 2003]). […] We designed the phase 1 trial to evaluate a dose range in human beings (using well-established rules for interspecies dose conversi ...

MLL cells = conditions: attempts to show induction; ref Livant et al, 2000b; cited from earlier work
[2] = tested on: integrin-dependent adhesion; conditions: ref Plunkett and Mazar, 2002, Plunkett et al; cited from earlier work
Text: (§1) ATN-161 is a noncompetitive inhibitor of the fibronectin PHSRN sequence, in which a cysteine residue has been substituted for arginine along with peptide acetylation and amidation in order to yield a product with acceptable pharmaceutical properties (Ac-PHSCN-NH2). […] Thus, ATN-16 ...

integrin beta subunits = conditions: ref Donate et al, 2003; cited from earlier work
Text: as §1

[3] = Urinary excretion and renal clearance in phase 1 trial; type: in vivo, human; conditions: urine; for dose excreted: human, iv
Procedure: Blood samples for PK analysis were collected in EDTA-coated tubes on Day 1 for all patients preinfusion, at the end of infusion, and at 5, 10, 15, 30, 45, 60, 90, 120, 150, 180, 240, 400, 460 and 520 min after infusion. Samples were immediately centrifuged, and the plasma was separated and stored at −20°C prior to analysis.
Pharmacokinetic data were modelled using a noncompartmental approach to estimate individual subject values for the following parameters: maximum observed concentration (Cmax), time of the maximum observed concentration (Tmax), volume of distribution at steady state (VSS), terminal elimination half-life (t1/2), total systemic clearance (CL), area under the plasma concentration-time curve (AUC), and CLr. For these parameters the mean and s.d. coefficient of variation were calculated.
Descriptive PKs parameters were determined by standard model independent methods for infusion administration ([Perrier and Gibaldi, 1982]) from plasma concentrations in each individual patient. Plasma and urine concentrations were rounded to the nearest [drawing 1] ng ml^−1 before the calculations. Plasma samples with concentrations below the quantifiable limit of 50.0 ng ml^−1 (BQL) were assigned values of zero for generation of mean and s.d. plasma concentrations. For PKs calculations, BQL was treated as zero up to the first quantifiable plasma concentration and then treated as an empty value thereafter. Urine samples reported as BQL (⩽50.0 ng ml^−1) were treated as zero for all calculations. Actual patient blood collection sampling times relative to the start of infusion were used for PKs calculations; however, scheduled collection times were used for urinary excretion data and graphical presentations of all data.

advanced solid tumours = test: Clinical response by RECIST in phase 1 trial; type: in vivo, human
Procedure: (§2) During treatment, patients were evaluated monthly with physical examinations including toxicity assessment using the CTC, ECOG PS, serum chemistry, haematology and coagulation testing. Tumour burden was reassessed every two cycles (8 weeks) by physical exam or radiological methods as appropriate using RECIST ([Therasse et al, 2000]).

MLL tumours = conditions: Copenhagen rats, ref Livant et al, 2000b, cited from earlier work
[4] = Toxicity / adverse events in phase 1 trial (NCI CTC v2.0); type: in vivo, human; conditions: for Number of patients with ATN-161-associated adverse events: possible, probable or definite relationship
Procedure: ATN-161 was administered as a 10-min infusion, three times per week. Sequential cohorts of three patients were enrolled to eight different dose levels (0.1, 0.25, 0.5, 1.0, 2.0, 4.0, 8.0 and 16.0 mg kg^−1). All patients in a given dose level were evaluated for at least 28 days before patients could be treated at the next higher dose level. Patients receiving therapy for <1 cycle (4 weeks) were to be replaced unless they had experienced a DLT. Toxicity was evaluated according to the NCI Common Terminology Criteria (CTC) Version 2.0. Dose-limiting toxicities were defined as any of the following treatment-related events occurring during the first cycle of therapy: Grade 4 neutropenia or febrile neutropenia, any other Grade 3 or greater nonhaematologic toxicity, or any toxicity requiring ATN-161 to be held for more than 1 week (i.e., three consecutive missed doses). In the event of DLT, dosing was to be held until recovery to at least Grade 1 toxicity and a new dosing cycle for that patient was to be initiated at the investigator's discretion at 50% of the previous dose. […] In the event of Grade 2 toxicity involving vital organs (hepatic, pulmonary, renal, neurologic, gastrointestinal or cardiotoxicity), the dose of ATN-161 was to be held until recovery to Grade 0–1 before a new cycle was initiated at 100% dosing. If the Grade 2 toxicity recurred, dosing was to be held until recovery to Grade 0–1 and the next cycle would resume at 50%. Occurrence of DLT at a given dose level would require further enrolment of up to six patients at that dose level to determine if the MTD had been exceeded. The MTD was defined as one dose level below which ⩾2/6 patients experienced a DLT. Treatment could continue until progressive disease, or one of the following: unacceptable toxicity, intercurrent illness, patient declined further treatment, or physician decision in view of a patient's other medical conditions.
as §2
No inferential analyses were performed. Data are presented in a descriptive fashion. Treatment-emergent adverse events were translated from investigator terms to MedDRA terminology and summarised within and across dose levels for all patients who received at least one dose of ATN-161. Treatment administration is described for all patients, including drug/dose administration, number of cycles, dose modifications or delays and duration of therapy.

[5] = dose level 0.5 mg kg^−1, ATN-161-associated, any course
[6] = dose level 1.0 mg kg^−1, ATN-161-associated, any course
[7] = dose level 2.0 mg kg^−1, ATN-161-associated, any course
[8] = dose level 4.0 mg kg^−1, ATN-161-associated, any course

Substance: Ac-PHSCN-NH2 [ATN-161, Ac-PHSCN-NH2]
- Toxicity in preclinical toxicology studies ([1]; primates): no consistent evidence of ATN-161 toxicity
- Toxicity in preclinical toxicology studies ([1]; rats): no consistent evidence of ATN-161 toxicity
- Induction of apoptosis in MLL cells (MLL cells): unsuccessful
- Block of integrin-dependent adhesion [2]: does not block
- Binding to integrin subunits (integrin beta subunits): binds exclusively to integrin beta subunits
- time after dose administration in which the majority of the dose was excreted ([3]; almost all patients (23 of 26)): ≤ 2 h
- dose excreted ([3]; 0.1 mg/kg, patients, 0.1 mg kg^−1 10-min i.v. infusion, Day 1, HPLC-MS/MS, cohort mean, read-out: Urinary excretion between 0 and 7 h as a percent of dose): 2.46%
- dose excreted ([3]; 0.25 mg/kg, patients, 0.25 mg kg^−1 10-min i.v. infusion, Day 1, HPLC-MS/MS, cohort mean, read-out: Urinary excretion between 0 and 7 h as a percent of dose): 13.8%
- dose excreted ([3]; 0.5 mg/kg, patients, 0.5 mg kg^−1 10-min i.v. infusion, Day 1, HPLC-MS/MS, cohort mean, read-out: Urinary excretion between 0 and 7 h as a percent of dose): 25.3%
- dose excreted ([3]; 1 mg/kg, patients, 1 mg kg^−1 10-min i.v. infusion, Day 1, HPLC-MS/MS, cohort mean, read-out: Urinary excretion between 0 and 7 h as a percent of dose): 1.82%
- dose excreted ([3]; 2 mg/kg, patients, 2 mg kg^−1 10-min i.v. infusion, Day 1, HPLC-MS/MS, cohort mean, read-out: Urinary excretion between 0 and 7 h as a percent of dose): 2.35%
- dose excreted ([3]; 4 mg/kg, patients, 4 mg kg^−1 10-min i.v. infusion, Day 1, HPLC-MS/MS, cohort mean, read-out: Urinary excretion between 0 and 7 h as a percent of dose): 2.36%
- dose excreted ([3]; 8 mg/kg, patients, 8 mg kg^−1 10-min i.v. infusion, Day 1, HPLC-MS/MS, cohort mean, read-out: Urinary excretion between 0 and 7 h as a percent of dose): 17.5%
- dose excreted ([3]; 16 mg/kg, patients, 16 mg kg^−1 10-min i.v. infusion, Day 1, HPLC-MS/MS, cohort mean, read-out: Urinary excretion between 0 and 7 h as a percent of dose): 15.3%
- dose excreted ([3]; majority of the patients (20 of 26), all dose levels, urine 0-7 h, read-out: Urinary excretion, percent of administered dose): ~2%
- dose excreted ([3]; remaining six of 26 patients, not associated with dose level, urine 0-7 h, read-out: Urinary excretion, percent of administered dose): 20 to 50%
- Objective response as defined by RECIST (advanced solid tumours; 26 patients, 0.1-16 mg kg^−1 thrice weekly i.v.): No patient in the study had an objective response
- Fraction of patients with prolonged stable disease (advanced solid tumours; patients in the study, all dose levels): 1/3
- Patients with stable disease of >4 months (advanced solid tumours; six of the 26 treated patients, 0.1-16 mg kg^−1 thrice weekly i.v.): 23%
- Growth of primary MLL tumours (MLL tumours; systemic 5 mg kg^−1, five injections over 16 days): markedly reduced
- Ability of MLL tumour cells to metastasise (MLL tumours): inhibited
- Number of patients with Muscle cramps [4, 5]: 1
- Number of patients with Sweating increased [4, 5]: 1
- Number of patients with ATN-161-associated adverse events ([4]; dose level 0.5 mg kg^−1, any course): 1
- Number of patients with Cellulitis [4, 6]: 1
- Number of patients with Dry mouth [4, 6]: 1
- Number of patients with Pain in limb [4, 6]: 1
- Number of patients with Paresthesia [4, 6]: 1
- Number of patients with Phlebitis not otherwise specified (NOS) [4, 6]: 1
- Number of patients with ATN-161-associated adverse events ([4]; dose level 1.0 mg kg^−1, any course): 1
- Number of patients with Anemia NOS [4, 7]: 1
- Number of patients with Hypotension NOS [4, 7]: 1
- Number of patients with Oral candidiasis [4, 7]: 1
- Number of patients with ATN-161-associated adverse events ([4]; dose level 2.0 mg kg^−1, any course): 2
- Number of patients with Constipation [4, 8]: 1
- Number of patients with Fatigue [4, 8]: 1
- Number of patients with Nausea [4, 8]: 2
- Number of patients with ATN-161-associated adverse events ([4]; dose level 4.0 mg kg^−1, any course): 2
- Number of patients with Nausea ([4]; dose level 8.0 mg kg^−1, ATN-161-associated, any course): 1
- Number of patients with ATN-161-associated adverse events ([4]; dose level 8.0 mg kg^−1, any course): 1
- Number of patients with Hypotension NOS ([4]; dose level 16.0 mg kg^−1, ATN-161-associated, any course): 1
- Number of patients with ATN-161-associated adverse events ([4]; dose level 16.0 mg kg^−1, any course): 1
- Dose-limiting toxicities (DLTs) ([4]; patients, 0.1-16 mg kg^−1 thrice weekly i.v., 26 patients): no DLTs occurred
- MTD (maximum tolerated dose) ([4]; patients, 10-min i.v. infusion three times per week, not reached, 16 mg kg^−1 designated maximum administered dose): > 16 mg/kg
